# US8999956B2, “N-[(het)arylalkyl)] pyrazole(thio)carboxamides and their heterosubstituted analogues” (Bayer Intellectual Property GmbH, priority 2010, dated 2015)
# Tests used:
# Alternaria solani = experiment: In vivo preventive test on Alternaria solani (tomato); conditions: 500 ppm of active ingredient, evaluated 7 days after inoculation
# Procedure: (§1) Solvent: 49 parts by weight of N,N-dimethylformamide Emulsifier: 1 part by weight of Alkylarylpolyglycolether To produce a suitable preparation of active compound, 1 part by weight of active compound is mixed with the stated amounts of solvent and emulsifier, and the concentrate is diluted with water to the desired concentration. To test for preventive activity, young plants are sprayed with the preparation of active compound at the stated rate of application. One day after this treatment, the plants are inoculated with an aqueous spore suspension of Alternaria solani.
# [1] = log P by HPLC on reversed-phase column (EEC Directive 79/831 Annex V.A8); format: physicochemical
# Procedure: In table 1, the log P values were determined in accordance with EEC Directive 79/831 Annex V.A8 by HPLC (High Performance Liquid Chromatography) on a reversed-phase column (C18), using the method described below: Temperature: 40° C.; […]
# Pyrenophora teres = experiment: In vivo preventive test on Pyrenophora teres (barley); conditions: 500 ppm of active ingredient, evaluated 7-9 days after inoculation
# Procedure: as §1, with “alkylaryl polyglycol ether” for “Alkylarylpolyglycolether”, “Pyrenophora teres.” for “Alternaria solani.”
logP [1],SMILES,Efficacy (Alternaria solani),Efficacy (Pyrenophora teres)
3.87,CC(CNC(=O)c1c(C(F)F)nn(C)c1Cl)Cc1ccc(Cl)c(Cl)c1 (racemic) [Example 127],90%,100%
3.74,Cn1nc(C(F)F)c(C(=O)NC(COc2ccc3ccccc3c2)C2CC2)c1F (racemic) [Example 137],95%,89%
3.76,CN(C(=O)c1c(C(F)F)nn(C)c1F)C(COc1ccc2ccccc2c1)C1CC1 (racemic) [Example 139],–,90%
3.44,CN(C(=O)c1c(C(F)F)nn(C)c1F)C(COc1ccccc1Cl)C1CC1 (racemic) [Example 145],70%,70%
3.63,Cc1cccc(C)c1CC(C)CNC(=O)c1c(C(F)F)nn(C)c1Cl (racemic) [Example 149],90%,95%
1.72 isomer A,"CC(O)C1CCCCC1NC(=O)c1c(C(F)F)nn(C)c1F (single isomer, unassigned) [Example 341]",80%,–
2.82,CN(CCCc1ccccc1)C(=O)c1c(C(F)F)nn(C)c1Cl [Example 5],80%,–
2.73,CN(CCCc1ccccc1)C(=O)c1c(C(F)F)nn(C)c1F [Example 6],95%,70%
3.04,CC(CCc1ccccc1)NC(=O)c1c(C(F)F)nn(C)c1Cl (stereo not drawn) [Example 11],95%,100%
2.88,CC(CCc1ccccc1)NC(=O)c1c(C(F)F)nn(C)c1F (stereo not drawn) [Example 12],95%,100%
2.66,CC(COc1ccccc1)NC(=O)c1c(C(F)F)nn(C)c1F (stereo not drawn) [Example 13],–,94%
2.84,CC(COc1ccccc1)NC(=O)c1c(C(F)F)nn(C)c1Cl (stereo not drawn) [Example 14],–,95%
2.62,CC(COc1ccccc1)N(C)C(=O)c1c(C(F)F)nn(C)c1F (stereo not drawn) [Example 16],90%,90%
3.02,CN(CC(NC(=O)c1c(C(F)F)nn(C)c1F)C1CC1)c1ccccc1 (stereo not drawn) [Example 17],95%,–
3.06,Cn1nc(C(F)F)c(C(=O)NC(COc2ccccc2)C2CC2)c1F (stereo not drawn) [Example 19],95%,89%
3.08,CN(C(=O)c1c(C(F)F)nn(C)c1F)C(COc1ccccc1)C1CC1 (stereo not drawn) [Example 21],90%,80%
3.25,Cn1nc(C(F)F)c(C(=O)NC(CSc2ccccc2)C2CC2)c1F (stereo not drawn) [Example 22],95%,–
4.03,Cn1nc(C(F)F)c(C(=O)N(CCOc2ccc(-c3ccccc3)cc2)C2CC2)c1Cl [Example 28],–,90%
3.27,CCN(C(=O)c1c(C(F)F)nn(C)c1F)C(C)COc1ccc(C)cc1 (stereo not drawn) [Example 38],80%,80%
3.64,Cc1ccc(SCC(C2CC2)N(C)C(=O)c2c(C(F)F)nn(C)c2F)cc1 (stereo not drawn) [Example 40],95%,80%

logP [1],SMILES,Efficacy (Alternaria solani),Efficacy (Pyrenophora teres)
1.86,CCC(COc1cc(OC)ccn1)NC(=O)c1c(C(F)F)nn(C)c1Cl (stereo not drawn) [Example 43],–,89%
3.00,Cn1nc(C(F)F)c(C(=O)NC2(COc3ccc(Cl)cc3)CC2)c1F [Example 44],100%,–
3.19,Cn1nc(C(F)F)c(C(=O)NC2(COc3ccc(Cl)cc3)CC2)c1Cl [Example 45],95%,–
3.73,Cn1nc(C(F)F)c(C(=O)NCC(Sc2ccc(Cl)cc2)C(F)(F)F)c1F (stereo not drawn) [Example 46],100%,100%
3.89,Cn1nc(C(F)F)c(C(=O)NCC(Sc2ccc(Cl)cc2)C(F)(F)F)c1Cl (stereo not drawn) [Example 47],80%,–
2.78,Cn1nc(C(F)F)c(C(=O)NCCOc2ccc(Cl)cc2)c1F [Example 48],90%,–
4.11,CC(C)C(CCc1ccc(Cl)cc1)NC(=O)c1c(C(F)F)nn(C)c1Cl (stereo not drawn) [Example 62],–,80%
3.94,CC(C)C(CCc1ccc(Cl)cc1)NC(=O)c1c(C(F)F)nn(C)c1F (stereo not drawn) [Example 63],100%,100%
2.14,CCC(COc1cc(C)cc(C)n1)NC(=O)c1c(C(F)F)nn(C)c1Cl (stereo not drawn) [Example 67],70%,100%
3.04,Cn1nc(C(F)F)c(C(=O)NCCOc2ccc(C(F)(F)F)cc2)c1F [Example 68],–,80%
3.17,Cn1nc(C(F)F)c(C(=O)NCCOc2ccc(C(F)(F)F)cc2)c1Cl [Example 69],80%,–
3.41,Cn1nc(C(F)F)c(C(=O)NCCOc2cccc(Oc3ccccc3)c2)c1F [Example 74],95%,–
4.01,Cn1nc(C(F)F)c(C(=O)NC(C)(C)CCc2cccc(Cl)c2)c1Cl [Example 83],95%,95%
3.83,Cn1nc(C(F)F)c(C(=O)NC(C)(C)CCc2cccc(Cl)c2)c1F [Example 84],95%,95%
4.04,CC(CNC(=O)c1c(C(F)F)nn(C)c1Cl)Cc1cc(Cl)cc(Cl)c1 (stereo not drawn) [Example 115],90%,100%
4.11,Cn1nc(C(F)F)c(C(=O)NC(C)(C)CCc2cccc(C(F)(F)F)c2)c1Cl [Example 135],–,90%
3.17,CN(CCCc1ccccc1Cl)C(=O)c1c(C(F)F)nn(C)c1Cl [Example 141],–,90%
3.99,Cn1nc(C(F)F)c(C(=O)NC(C)(C)CCc2ccccc2Cl)c1Cl [Example 147],–,100%
4.15,Cc1cccc(C)c1OCC(C)N(C(=O)c1c(C(F)F)nn(C)c1Cl)C1CC1 (stereo not drawn) [Example 156],80%,95%
2.44,Cn1nc(C(F)F)c(C(=O)NCCOc2c(F)cccc2F)c1F [Example 159],90%,–

logP [1],SMILES,Efficacy (Alternaria solani),Efficacy (Pyrenophora teres)
3.31,Cn1nc(C(F)F)c(C(=O)NCCOc2cc(Cl)ccc2Cl)c1Cl [Example 170],90%,–
3.68,Cn1nc(C(F)F)c(C(=O)NCCCc2ccc(Cl)cc2Cl)c1Cl [Example 179],–,100%
4.18,Cn1nc(C(F)F)c(C(=O)NC(COc2ccc(Cl)cc2Cl)C2CC2)c1Cl (stereo not drawn) [Example 194],70%,–
3.62,CN(C(=O)c1c(C(F)F)nn(C)c1Cl)C(CSCc1ccccc1)C1CC1 (stereo not drawn) [Example 224],70%,–
2.17,Cn1nc(C(F)F)c(C(=O)NC2CCCC2Sc2ncccn2)c1F (stereo not drawn) [Example 258],–,89%
3.78,Cc1cccc(OC2CCCC2NC(=O)c2c(C(F)F)nn(C)c2Cl)c1 (stereo not drawn) [Example 260],–,70%
2.06,CC(C)OC1CCCC(NC(=O)c2c(C(F)F)nn(C)c2F)C1 (stereo not drawn) [Example 325],95%,–
3.79,Cn1nc(C(F)F)c(C(=O)NC2CCCCC2C(C)(C)C)c1F (stereo not drawn) [Example 349],–,95%
4.56,CC(CC1CCCCC1)N(C(=O)c1c(C(F)F)nn(C)c1Cl)C1CC1 (stereo not drawn) [Example 371],–,–
5.59,Cn1nc(C(F)F)c(C(=O)N(C2CC2)C2CCCCC2C2CCCCC2)c1Cl (stereo not drawn) [Example 373],–,–
4.56,Cn1nc(C(F)F)c(C(=O)NC2CCCCC2C2CCCCC2)c1Cl (stereo not drawn) [Example 375],–,–
5.17,Cn1nc(C(F)F)c(C(=O)N(C2CC2)C2CCCCC2C2=CCCCC2)c1Cl (stereo not drawn) [Example 377],–,–
2.90,CC#CC1(NC(=O)c2c(C(F)F)nn(C)c2F)CCCCC1 [Example 382],–,–
3.11,CC#CC1(NC(=O)c2c(C(F)F)nn(C)c2Cl)CCCCC1 [Example 383],–,–
2.73,C#CC1(NC(=O)c2c(C(F)F)nn(C)c2Cl)CCCCC1 [Example 384],–,–
2.56,C#CC1(NC(=O)c2c(C(F)F)nn(C)c2F)CCCCC1 [Example 385],–,–
3.15,Cn1nc(C(F)F)c(C(=O)NC2(C(F)(F)F)CCCCC2)c1Cl [Example 386],–,–
3.00,Cn1nc(C(F)F)c(C(=O)NC2(C(F)(F)F)CCCCC2)c1F [Example 387],–,–

SMILES,logP [1],Efficacy (Alternaria solani),Efficacy (Pyrenophora teres)
CN(c1ccc(Oc2ccccc2)cc1)C(CNC(=O)c1c(C(F)F)nn(C)c1Cl)C(F)(F)F (stereo not drawn) [Example 32],4.27,95%,70%
CN(c1ccc(Oc2ccccc2)cc1)C(CNC(=O)c1c(C(F)F)nn(C)c1F)C(F)(F)F (stereo not drawn) [Example 33],4.16,95%,95%
Cn1nc(C(F)F)c(C(=O)NCCOc2ccc(Oc3ccccc3)cc2)c1F [Example 34],3.42,90%,–
Cn1nc(C(F)F)c(C(=O)NCCOc2ccc(Oc3ccccc3)cc2)c1Cl [Example 35],3.55,–,70%
